One assay relates to Adjuvant Edema. Put plainly: Preventative Adjuvant Edema (Freund's complete adjuvant, hind paw volume). Format: in vivo, rat (male Sprague Dawley). To be noted: for Preventative Adjuvant Edema % Inhibition: p.o., rat; for inhibition in vivo at 25 mg/kg / ED50: po; for inhibition in vivo at 25 mg/kg: 72 h, rat (second results table), read-out: Preventative Adjuvant Edema percent inhibition; for ED50: ED50, rat (second results table). On the procedure: This test is a primary screen for anti-inflammatory drugs.
Male Sprague Dawley rats (180-200 g) are used. The animals have free access water but food is withdrawn 18 hours before testing.
Drug Preparations and Administration:
Freund's complete adjuvant is prepared by suspending 5 mg killed and dried Mycobacterium butyricum (Difco) in 1 ml liquid paraffin. The test compounds are dissolved in distilled water or suspended in distilled water with a few drops of Tween 80 according to their solubility. For primary screening all drugs are administrated by gastric lavage at the arbitrary dosage of 100 mg/kg, p.o. in a volume of 0.5 ml/100 g body weight to groups of 10 animals.
The method is essentially that described by Wax et al., J. Pharmacol. Exp. Ther., 192, 166-171 (1975). Groups of rats are injected intradermally in the left hind paw with 0.1 ml of Freund's complete adjuvant. The test compound or vehicle is administrated before the adjuvant, 24 hours and 48 hours after the adjuvant (day 0, 1 and 2). The injected hind paw volume is measured before the injection of adjuvant and 24 hrs. after the last drug administration (day 3) by means of a plethysmometer (Buxco Electronics Inc.). The difference between then hind paw volume on day 0 and day 3 represents the edema volume. Phenylbutazone (50 mg/kg, p.o.) is included as a positive control.
The mean edema volume (expressed as ml±SEM) is calculated for each group and the percentage protection conferred by the drug is calculated:
where c is the mean edema volume for the untreated controls and t is the mean edema volume for the drug treated group.

The next assay concerns Phenylquinone Writhing. In words: Phenylquinone-induced writhing in mice. The following applies: for Phenylquinone Writhing in Mice % Inhibition: p.o.; for ED50: ED50, mice (second results table). Type of assay: in vivo, mouse (male Swiss albino). Here is the method: A further test used to determine the utility of the compounds of the present invention is designated: DRUG EFFECTS ON PHENYLQUINONE-INDUCED WRITHING IN MICE […]
The objective of this test is to determine the ability of test drugs to inhibit the nociceptive (pain) response of mice injected with a chemical irritant. This test is a primary screen for both peripheral and centrally acting analgesic drugs.
Male Swiss albino mice (15-25 g). The animals are fasted for 18 hours prior to use but have free access to water.
(§1) Drug Preparation and Administration:
Drugs are dissolved or suspended according to their solubility in 0.5% methyl cellulose or 0.5% Tween 80. They are administered by gastric lavage in a volume of 5 ml/kg. For primary screening all drugs are administered at the arbitrary dosage of 200 mg/kg, p.o. to a group of 10 mice.
A modification of the method of Siegmund at el., Proc. Soc. Exp. Biol. Med., 95, 729-731 (1957) is used. Groups of 5 mice are dosed with the test compound or vehicle control. Sixty minutes later the animals are injected i.p. with 0.3 ml/20 g body weight of a 0.02% solution of phenylquinone (PBQ; 2-phenyl-1,4-benzoquinone) and placed in individual observation boxes. The numer of writhing or abdominal squirming movements made by each mouse during the following 15 min. period is counted. The experiment is repeated with another group of 5 mice and the mean number of writhes per mouse for a group of 10 mice is calculated.
Drug treated and vehicle-treated control groups are compared and the percentage protection conferred by the drug is calculated:
Percentage protection=(c-t)100/c […]
where c=mean number of writhes in the control group where t=mean number of writhes in the test drug group
On the technique in general: An intraperitoneal irritant provokes the stretching counted in writhing tests.

A further assay deals with inflamed paw. In words: Paw Pressure Test in the Rat (Freund's adjuvant inflamed paw, pain threshold). To be noted: po. Format: in vivo, rat (male Sprague Dawley).
Description: A still further test used to determine the utility of the compounds of the present invention is designated: PAW PRESSURE TEST IN THE RAT
The objective of this test is to assess the potency of peripheral and central acting drugs in inhibiting the reaction of rats to painful stimulation applied to an inflamed paw.
Male Sprague Dawley rats (180-200 g) are used. The animals are fasted overnight prior to drug administration.
as §1
Freund's Complete Adjuvant (FCA) is prepared by suspending 5 mg killed and dried mycobacterium butyricum (Difco) in 1 ml liquid paraffin. The test compounds are dissolved, or suspended with a few drops of Tween 80, in distilled water according to their solubility. They are administered by gastric gavage in a volume of 0.5 ml/100 g body weight to groups of 10 animals.
Ten rats are used per group. The method is essentially that described by Randall, et al., Arch. Int. Pharmacodyn. 111, 409 (1957) and the apparatus which is used to apply pressure to the paw (Analgesy-meter for the rat paw, Ugo Basile from Coulbourn Instruments) is a modification of that described by Gilfoil et al., J. Pharmacol, 142, 1 (1963). The instrument is basically a device which exerts a force that increases at a constant rate. The force is continuously monitored by a pointer moving along a linear scale and is measured in grams. The inflammatory reaction is induced in the left hind paw of rats by injecting 0.1 ml of Freund's adjuvant intradermally. The test compound or vehicle is administered 24 hours after the adjuvant. Prior to drug administration the rats are selected for their paw sensitivity. Rats responding to a pain threshold greater than 10 g applied to the inflamed paw are rejected. The pain threshold (vocalization) is determined 1 and 3 hours later in the inflamed paw and the normal paw of the treated and control groups. The higher of the 2 readings will be considered as representative of the drug effect on the pain threshold.
Presentation of results and Criteria for Activity:
Each animal which has a reading 1.5 times greater than the mean reading of the control-group will be considered as responsive to treatment. The number of animals showing an analgesic effect is then determined in each group.
The ED50 (dose which causes analgesia in 50% of the animals) using at least 3 doses is then determined, by the method described in Litchfield et al., J. Pharmacol. Exp. Ther., 96, 99 (1949).

Setting [1] is: dose which causes analgesia in 50% of the animals, rat.
The mark [2] stands for this setting: Mus musculus, po, mice (second results table), read-out: Phenylquinone Writhing in Mice percent inhibition.

For `C=CC[C@@H]1CC[C@](CC)(CC(=O)O)c2[nH]c3c(CC)cccc3c21` (relative stereo) [Example 1, cis-1,8-Diethyl-2,3,4,9-tetrahydro-4-(2-propenyl)-1H-carbazole-1-acetic Acid], the “Preventative Adjuvant Edema % Inhibition” value is recorded as 31% in the assay on Adjuvant Edema (10 mg/kg), 44% in the assay with Adjuvant Edema (25 mg/kg) and 38% in the assay on Adjuvant Edema (50 mg/kg). The “Phenylquinone Writhing in Mice % Inhibition” value with Phenylquinone Writhing (10.6 mg/kg) is reported as 31%; with Phenylquinone Writhing (25 mg/kg) it was 60-80%; in the assay on Phenylquinone Writhing (200 mg/kg), 94%. Moreover, the ED50 (usually the dose that gives a 50% effect, or the effect in half of the subjects) with inflamed paw (setting [1]) was 0.02 mg/kg.
As to `C=CC[C@@H]1CC[C@](CC)(CC(=O)O)c2[nH]c3ccccc3c21` (relative stereo) [Example 3, cis-1-Ethyl-2,3,4,9-tetrahydro-4-(2-propenyl)-1H-carbazole-1-acetic Acid], the “Preventative Adjuvant Edema % Inhibition” value with Adjuvant Edema (10 mg/kg) turned out to be 50%. Further, the “Phenylquinone Writhing in Mice % Inhibition” value in the assay on Phenylquinone Writhing (20 mg/kg) is 50%. Further, the ED50 with inflamed paw (setting [1]) turned out to be 0.01 mg/kg.
Regarding `C=CC[C@@H]1CC[C@](CC)(CC(=O)O)c2[nH]c3c(C(C)C)cccc3c21` (relative stereo) [Example 10], the inhibition in vivo at 25 mg/kg in the assay on Adjuvant Edema came out at 43%; in the assay with Phenylquinone Writhing (setting [2]), 27%.
As for `C=CC[C@@H]1CC[C@](CC)(CC(=O)O)c2[nH]c3ccc(F)cc3c21` (relative stereo) [Example 13], the figures for the inhibition in vivo at 25 mg/kg in the assay with Adjuvant Edema and in the assay on Phenylquinone Writhing (setting [2]) were 36% and 20%, respectively.
In the case of `C=CC[C@@H]1CC[C@](CC)(CC(=O)O)c2[nH]c3c(Br)cccc3c21` (relative stereo) [Example 14], in the assay with Adjuvant Edema, the ED50 was 28 mg/kg. Further, the inhibition in vivo at 25 mg/kg with Phenylquinone Writhing (setting [2]) came to 38%.
Consider `C=CC[C@@H]1CC[C@](CC)(CC(=O)O)c2[nH]c3c(F)cccc3c21` (relative stereo) [Example 15], for which the ED50 in the assay on Adjuvant Edema turned out to be 13.3 mg/kg. In addition, the inhibition in vivo at 25 mg/kg with Phenylquinone Writhing (setting [2]) came to 27%.
For `C=CC[C@@H]1CC[C@](CC)(CC(=O)O)c2[nH]c3cccc(Cl)c3c21` (relative stereo) [Example 17], the ED50 in the assay with Adjuvant Edema turned out to be 6.6 mg/kg. The inhibition in vivo at 25 mg/kg in the assay with Phenylquinone Writhing (setting [2]) was determined as 35%.
Consider `C=CC[C@@H]1CC[C@](CC)(CC(=O)O)c2[nH]c3cc(Br)ccc3c21` (relative stereo) [Example 18], for which the ED50 in the assay on Adjuvant Edema came to 17.5 mg/kg; in the assay on Phenylquinone Writhing (Mus musculus, po) it was 3.6 mg/kg.
As to `C=CC[C@@H]1CC[C@](CC)(CC(=O)O)c2[nH]c3cccc(Br)c3c21` (relative stereo) [Example 19], the inhibition in vivo at 25 mg/kg with Adjuvant Edema is 50%; with Phenylquinone Writhing (setting [2]), 52%.
As for `C=CC[C@@H]1CC[C@](CC)(CC(=O)O)c2[nH]c3c(I)cccc3c21` (relative stereo) [Example 22], the inhibition in vivo at 25 mg/kg in the assay on Adjuvant Edema is 46%. This compound also showed an ED50 with Phenylquinone Writhing (Mus musculus, po) of 17 mg/kg.
Turning to `C=CC[C@@H]1CC[C@](CC)(CC(=O)O)c2[nH]c3c(Cl)cc(Cl)cc3c21` (relative stereo) [Example 36], in the assay with Adjuvant Edema, the inhibition in vivo at 25 mg/kg was 35%. Further, the ED50 with Phenylquinone Writhing (Mus musculus, po) came to 7.6 mg/kg.
`C=CC[C@@H]1CC[C@](CC)(CC(=O)O)c2[nH]c3c(C)c(Br)ccc3c21` (relative stereo) [Example 37]: the inhibition in vivo at 25 mg/kg with Adjuvant Edema was found to be 34%. Besides, it took a dose of 3 mg/kg to reach the 50% effect level with Phenylquinone Writhing (Mus musculus, po) (ED50).
For `C=CC[C@@H]1CC[C@](CC)(CC(=O)O)c2[nH]c3c(C)ccc(Cl)c3c21` (relative stereo) [Example 38], the inhibition in vivo at 25 mg/kg in the assay with Adjuvant Edema worked out at 48%. Further, in the assay with Phenylquinone Writhing (Mus musculus, po), the ED50 worked out at 5.4 mg/kg.
With `C=CC[C@@H]1CC[C@](CC)(CC(=O)O)c2c1c1cccc(CC)c1n2C` (relative stereo) [Example 43, cis-1,8-Diethyl-2,3,4,9-tetrahydro-9-methyl-4-(2-propenyl)-1H-Carbazole-1-acetic Acid], the inhibition in vivo at 200 mg/kg in the assay with Phenylquinone Writhing (Mus musculus, po, dose 200 mg/kg, mice (second results table), read-out: Phenylquinone Writhing in Mice percent inhibition) came to 32%. In the assay with inflamed paw (ED50, rat (second results table)), the ED50 is 8 mg/kg.
For `CCc1cccc2c3c([nH]c12)C(CC)(CC(=O)O)CCC3Cc1ccccc1` (single isomer, unassigned) [Example 2 Isomer A, 1,8-Diethyl-2,3,4,9-tetrahydro-4-(phenylmethyl)-1H-carbazole-1-acetic Acid], the “Preventative Adjuvant Edema % Inhibition” value in the assay with Adjuvant Edema (25 mg/kg) turned out to be 6%. Besides, in the assay on Phenylquinone Writhing (25 mg/kg), the “Phenylquinone Writhing in Mice % Inhibition” value stood at 15%.
Regarding `CCc1cccc2c3c([nH]c12)C(CC)(CC(=O)O)CCC3Cc1ccccc1` (single isomer, unassigned) [Example 2 Isomer B, 1,8-Diethyl-2,3,4,9-tetrahydro-4-(phenylmethyl)-1H-carbazole-1-acetic Acid], in the assay with Adjuvant Edema (25 mg/kg), the “Preventative Adjuvant Edema % Inhibition” value is given as 38%. Besides, the “Phenylquinone Writhing in Mice % Inhibition” value with Phenylquinone Writhing (25 mg/kg) is on record as 55%.
As for `CCCC1CCC(CC)(CC(=O)O)c2[nH]c3c(CC)cccc3c21` (centres unmarked) [4-propyl-1,8-diethyl-2,3,4,9-tetrahydro-1H--carbazole-1-acetic acid, reference compound], the entries for the “Phenylquinone Writhing in Mice % Inhibition” value with Phenylquinone Writhing (25 mg/kg) and with Phenylquinone Writhing (200 mg/kg) were 15% and 56%, respectively.
Regarding `C=CCC1CCC(C)(CC(=O)O)c2[nH]c3c(CC)cccc3c21` (centres unmarked) [Example 9], the inhibition in vivo at 25 mg/kg with Adjuvant Edema worked out at 38%; in the assay with Phenylquinone Writhing (setting [2]), 37%.
The matching figures for `C=CCC1CCC(CCC)(CC(=O)O)c2[nH]c3c(CC)cccc3c21` (centres unmarked) [Example 21]: 24% and 21%.
Take `C=CC(C)(C)C1CCC(CC)(CC(=O)O)c2[nH]c3c(F)cccc3c21` (centres unmarked) [Example 23]: the results for the inhibition in vivo at 25 mg/kg in the assay with Adjuvant Edema and with Phenylquinone Writhing (setting [2]) were 16% and 41%, respectively.
For `C=C(C)CC1CCC(CC)(CC(=O)O)c2[nH]c3ccccc3c21` (centres unmarked) [Example 24] the same measures were 56% and 29%.
For `C=CC(C)(C)C1CCC(CC)(CC(=O)O)c2[nH]c3c(C)c(Cl)ccc3c21` (centres unmarked) [Example 35], the inhibition in vivo at 25 mg/kg in the assay on Adjuvant Edema was determined as 30%; in the assay with Phenylquinone Writhing (setting [2]) it was 28%.
